{
  "source": "patent US9364413B2",
  "about": "“Method for anti-aging treatment by surfactin in cosmetics via enhancing sirtuin” (UMO International Co., Ltd., priority 2014, dated 2016)",
  "key": {"collagen": {"test_system": "collagen", "experiment": "Sircol soluble collagen assay", "assay_type": "cell-based, mouse", "settings": "24 hours", "method": "Sircol™ soluble collagen assay kit was used for analysis the total concentration of collagen in the culture media and the general method is described as follows:\nPlace 0.1 ml of the test samples and the standards at different concentrations in separate 1.5 mL centrifuge tubes. Add 1 mL of dye reagent and vortex for 35 minutes, followed by centrifugation at 12000 rpm for 10 minutes and remove the supernatant. Carefully remove the residue water at the side of the tube to avoid contact with the precipitate. Add 1 mL of Alkali reagent to dissolve the precipitate and transfer 0.2 mL to a 96-well pate after the color has developed and measure absorbance at 570 nm using an ELISA reader."}, "[1]": {"settings": "Razafindralambo et al.; cited from earlier work"}, "sirtuin 1 gene": {"test_system": "sirtuin 1 gene", "experiment": "mRNA expression of the long-lived gene sirtuin 1 by real-time quantitative PCR", "assay_type": "cell-based", "settings": "mouse embryo fibroblasts", "excerpt": "Total RNA was extracted from human skin fibroblasts and mouse embryo fibroblasts using TRIzol reagent (Invitrogen, USA), analyzed by RNA gel electrophoresis and subjected to RT-PCR for amplification of human skin fibroblasts sirtuin 1 and sirtuin 3 and mouse embryo fibroblasts sirtuin 1. GeneBan was used to identify well known sequences of sirtuins and GCG program was utilized to search for sequences with high similarity. A primer set was designed for polymerase chain reaction (PCR), followed by 1.2% agarose gel electrophoresis of a small portion of the reaction product to confirm the expected product has been amplified. Once confirmed, the remaining product was subjected to low-melting point agar gel electrophoresis, the product was excised from the gel and the specific size of DNA fragment was purified by gel extraction for cloning. The purified DNA fragment was ligated with the cloning vector pGEM-T-easy vector (pGEM-T-easy cloning kit, Promega, USA) before transformed into the competent cells. Finally, after small scale culture, cloning vector was extracted for sequencing, and the sequence data was compared using the BLAST program of NCBI. Part of the human skin fibroblast sirtuin 1 and sirtuin 3 and mouse embryo fibroblasts sirtuin 1 were correctly cloned by the abovementioned cloning procedures and the selected clones were transformed into competent cells again for extraction of plasmid with high purity for future experiments.\nRNA is easily degraded in natural environment by RNase and thus all tools used must be autoclaved and dried in an oven prior to conducting experiments and wear gloves and masks during the procedures. Quickly add 800 μL TRIzol™ reagent to the culture dish of the experimental group and transfer the washed off cells to a sterile tube. Add chloroform to the tube in the volume of ⅕ of the total volume of TRIzol™ reagent and shake vigorously for 30 seconds. After incubation at room temperature for 15 minutes, centrifuge at 13200 rpm for 15 minutes at 4° C. and transfer the supernatant to a new 1.5 mL eppendorf. RNA is present in the aqueous phase of the supernatant. Transfer the supernatant to another clean 1.5 mL eppendorf and add Isopropanol in the volume of ½ of TRIzol™ reagent and high salt solution (1.2 M Sodium Chloride and 0.8 M Sodium citrate), mix well and incubate at −20° C. for 30 minutes, followed by centrifugation at 13200 rpm for 15 minutes at 4° C. to precipitate RNA; remove the supernatant carefully and add 800 μL of 100% absolute ethanol to wash and centrifuge at 13200 rpm for 10 minutes at 4° C. before washing with 100% ethanol. Carefully remove the supernatant and dry the RNA precipitate at 55° C. for 5 minutes. Dissolve the RNA precipitate in 15 μL DEPC water and incubate at 55° C. for 10 minutes and store at −80° C. freezer for future use.\nPlace 5 μg of total RNA in a 200 μL eppendorf and adjust the volume to 13 μL with DEPC water, add 1 μL of oligo(dT) 18, 10 mM dNTPs and incubate on ice. Add 4 μl of 5×AMV buffer and 1 μl of AMV (40 units/μL) and mix well. […]\nThe fluorescent dye SYBR green I can be embedded in the groove of double-stranded DNA and generate fluorescence when excited by a halogen light and its intensity can then be measured. When SYBR green I is not embedded in the groove of double-stranded DNA, its fluorescence background value is very low; and when it starts to integrate into the amplified target gene sequence, the fluorescence signal of SYBR green I will also be increased accordingly. […]"}, "[2]": {"experiment": "percutaneous penetration of gold nanoparticles in mice", "assay_type": "in vivo", "settings": "12.5 ppm surfactin, gold nanoparticles 2 nm, mice (BALB/c)", "excerpt": "We applied the mix of gold nanoparticles and surfactin to the skin of mice for a certain period of time and collected the skin for cryosection. Because gold nanoparticles is self-luminous, optical microscope can be used to observe the content of fluorescence of gold nanoparticles in epidermis and dermis of the skin. The results indicated skin care paste obtained by conventional methods is not helpful for gold nanoparticle absorption by the skin due to its internal gel-mass like or gel-bundle like structure and thus gold nanoparticles were only found in the epidermis."}, "[3]": {"experiment": "foaming power, foam maximum density (MD)", "assay_type": "physicochemical", "settings": "buffer pH 7.4, more than 150 μg of surfactin, surfactin produced by Bacillus subtilis TH", "method": "Measure the height of the foam and calculate the foam maximum density (MD).\nSurfactants are […] and present invention examined the foaming property of crude surfactin. The method developed by Razafindralambo et. al was referenced and different concentrations of crude surfactin was dissolved in a buffer solution with a pH at 7.4, vortex for 2 minutes and followed by incubation for 1 hour. The height of the foam was then measured and the foaming power is expressed as foam maximum density (MD) which is obtained by dividing the […]."}, "mouse embryo fibroblasts [4]": {"test_system": "mouse embryo fibroblasts", "experiment": "anti-photoaging: cell survival after UV-A irradiation (MTT method)", "assay_type": "cell-based", "settings": "for cell survival rate after UV irradiation: 24 hours", "method": "After incubation for 24 hours, cell survival rates were measured by the MTT method."}, "[5]": {"experiment": "skin absorption of FITC-labeled hyaluronic acid in mice", "assay_type": "in vivo", "settings": "1 hour, back of mice", "method": "(§1) Before the experiment, the back of the mice was shaved. Mice aged 6-8 weeks were anesthetized by intraperitoneal injection using (Zoletil) and lay the animal flat before shaving the back with a electric razor and remove the remaining hair with hair removal cream. Place the animals in the cages with a warming light and provide water in each cage. Two groups are include in the experiment: for the control group, 100 μl of PBS (pH=7.4) was mixed with fluorescein isothiocyanate (FITC)-labeled HA or dexamethasone before added to 1 cm2 sterile cotton and affixed to the back of the mice; for the experimental group, FITC-labeled HA or dexamethasone was mixed with 0, 0.2, 0.5, 1, 2 and 5% surfactin for 1 hour.\n(§2) At the end of 1 hour treatment, sacrificed the mice with CO2 asphyxiation, clean up the drug residue on the skin with ethanol and cut the skin on the back and embedded in Optimum cutting temperature compound (O.C.T) (SAKURA®, Japen) for cryosection (CM-2000, Leica, Germany)."}, "[6]": {"experiment": "turbidity of diluted shampoo and corecervate formation", "assay_type": "physicochemical", "method": "(1) Adjust the relative concentration of the shampoo to 0.01-1.0\nRelative concentration=shampoo liquid (g)/(shampoo liquid (g)+water (g))\n(2) Measure the transmittance rate (%, temperature at 40° C.) of the […] solution (1) and the turbidity is represented as =100−transmittance rate (%)"}, "[7]": {"experiment": "skin absorption of FITC-labeled poly-γ-glutamic acid in mice", "assay_type": "in vivo", "settings": "1, 2, 5, 10, 15 and 20% surfactin, 1 hour, back of mice, fluorescence intensity"}, "mouse embryo fibroblasts [8]": {"test_system": "mouse embryo fibroblasts", "experiment": "cell proliferation of mouse embryo fibroblasts", "assay_type": "cell-based", "settings": "48 hours"}, "[9]": {"experiment": "emulsifying power in diesel, emulsification index (E24)", "assay_type": "physicochemical", "method": "After incubation at room temperature for 24 hours, emulsification index (E24) was measured.\nThe emulsifying power is one of the important indicator of surfactants, and present invention utilized the method published by Cooper et. al to measure the emulsification index of surfactants in diesel. Different concentrations of crude surfactin was dissolved in buffer solutions at pH 6.4, 7.4 and 8.4, and 2 ml of the dissolved mixture was added to a test tube containing 3 ml of diesel, vortex for 2 minutes and incubate at room temperature for 24 hours before measurement. The ration of height of the emulsifying phase and the total height of the solution multiplied by 100% will give the emulsification index of the test solution. The emulsifying power of oil products is represented as the emulsification index (E24), wherein the equation of E24 is shown as follows: E24(%)=(height of the emulsifying phase/total height of solution)×100%."}, "mouse embryo fibroblasts [10]": {"test_system": "mouse embryo fibroblasts", "experiment": "anti-oxidation: cell survival after hydrogen peroxide treatment (MTT method)", "assay_type": "cell-based", "method": "Following subculture of the mouse embryo fibroblasts and incubation for 4 hours for attachment, hydrogen peroxide was used to treat the cells as the source of oxidation. The cells were treated with 100, 150, 200 and […] of hydrogen peroxide before addition of 25, 50, 75 and 100 μM of surfactin for another 24 hours. Cell survival rate was measured by the MTT method."}, "[11]": {"experiment": "skin penetration of FITC-labeled dexamethasone in mice", "assay_type": "in vivo", "settings": "0.2, 0.5, 1 and 2% surfactin, 1 hour, back of mice, fluorescence intensity", "method": "as §1, §2"}},
  "note": "Peptide text beside a SMILES is read from it.",
  "data": [
    {"compound": "palmitoyl pentapeptide-3 [reference compound]", "values": [
      {"measurement": "collagen effect compared with surfactin", "setting": "collagen", "result": "not as good as surfactin"},
      {"measurement": "collagen content in the cells", "setting": "collagen; Palmitoyl pentapeptide-3 3, 5, 8 and 10 μM", "result": "can also increase collagen content"}
    ]},
    {"compound": "CC(C)CCCCCCCCC[C@@H]1CC(=O)N[C@@H](CCC(=O)O)C(=O)N[C@@H](CC(C)C)C(=O)N[C@H](CC(C)C)C(=O)N[C@@H](C(C)C)C(=O)N[C@@H](CC(=O)O)C(=O)N[C@H](CC(C)C)C(=O)N[C@@H](CC(C)C)C(=O)O1", "note": "[surfactin] (HELM PEPTIDE1{E.L.[dL].V.D.[dL].L}|CHEM1{[CC(C)CCCCCCCCC[C@H](CC(=O)[*:1])O[*:2]]}$PEPTIDE1,CHEM1,1:R1-1:R1|PEPTIDE1,CHEM1,7:R2-1:R2$$$V2.0)", "values": [
      {"measurement": "MD value of surfactin", "setting": "[1]", "result": "≥ 0.10"},
      {"measurement": "concentration with the best effect in enhancement of sirtuin 1 expression", "setting": "sirtuin 1 gene; 0-100 μM tested, 6-48 hours", "result": 50, "unit": "µM"},
      {"measurement": "expression of the sirtuin 1 gene", "setting": "sirtuin 1 gene; 6 hours, 50 μM and 75 μM surfactin", "result": "enhance expression of the sirtuin 1 gene"},
      {"measurement": "expression of the sirtuin 1 gene", "setting": "sirtuin 1 gene; 12 hours, 25 μM surfactin", "result": "enhancement of expression of the sirtuin 1 gene"},
      {"measurement": "expression of the sirtuin 1 gene", "setting": "sirtuin 1 gene; 36 hours, 50 μM and 100 μM surfactin", "result": "enhancement of expression of the sirtuin 1 gene"},
      {"measurement": "expression of the sirtuin 1 gene", "setting": "sirtuin 1 gene; 48 hours, 50 μM surfactin", "result": "enhancement of expression of the sirtuin 1 gene"},
      {"measurement": "collagen proliferation in mouse embryo fibroblasts", "setting": "collagen; 25, 50, 75 and 100 μM, compared with PBS control", "result": "great effects in increasing collagen proliferation"},
      {"measurement": "concentration with the best result in increasing collagen", "setting": "collagen", "result": 100, "unit": "µM"},
      {"measurement": "percutaneous absorption of gold nanoparticles", "setting": "[2]", "result": "significantly enhance the percutaneous absorption of gold nanoparticles"},
      {"measurement": "foam maximum density (MD), minimum", "setting": "[3]", "result": 1.23},
      {"measurement": "cell survival rate after UV irradiation", "setting": "mouse embryo fibroblasts [4]; UV 10 J/cm^2, 25, 50, 75, 100 and 125 μM surfactin", "result": "increase cell survival rate"},
      {"measurement": "concentration with the best protection after UV irradiation", "setting": "mouse embryo fibroblasts [4]; UV 10 J/cm^2, 24 hours", "result": 75, "unit": "µM"},
      {"measurement": "cell survival rate after UV irradiation", "setting": "mouse embryo fibroblasts [4]; UV 15 J/cm^2, 25, 50, 75, 100 and 125 μM surfactin", "result": "increase cell survival rate"},
      {"measurement": "concentration with the best protection after UV irradiation", "setting": "mouse embryo fibroblasts [4]; UV 15 J/cm^2, 24 hours", "result": 50, "unit": "µM"},
      {"measurement": "hyaluronic acid (HA) absorption by the skin", "setting": "[5]; 0.2-5% surfactin, fluorescence intensity", "result": "can increase hyaluronic acid (HA) absorption by the skin"},
      {"measurement": "surfactin concentration with the best effect on enhancing skin absorption of HA", "setting": "[5]", "result": 1, "unit": "%"},
      {"measurement": "turbidity of the shampoo", "setting": "[6]; compared with sodium laureth sulfate, 40° C., relative concentration 0.01-1.0", "result": "can further reduce the turbidity of the shampoo"},
      {"measurement": "corecervate formation", "setting": "[6]; shampoo during flushing / dilution", "result": "corecervate will occur at low concentrations"},
      {"measurement": "skin absorption of γ-GPA", "setting": "[7]", "result": "can all increase skin absorption of γ-GPA"},
      {"measurement": "mouse embryo fibroblast proliferation", "setting": "mouse embryo fibroblasts [8]; 0, 25, 50, 75 and 100 μM", "result": "can enhance mouse embryo fibroblast proliferation"},
      {"measurement": "concentration with the best effect in inducing cell proliferation", "setting": "mouse embryo fibroblasts [8]; followed by 50 μM", "result": 75, "unit": "µM"},
      {"measurement": "cell proliferation compared with resveratrol and Palmitoyl pentapeptide-3", "setting": "mouse embryo fibroblasts [8]; resveratrol 0-30 μM, Palmitoyl pentapeptide-3 0-10 μM", "result": "better effect in inducing cell proliferation"},
      {"measurement": "pH of the best emulsifying power", "setting": "[9]; pH 6.4, 7.4 and 8.4 tested, E24 after 24 hours", "result": 7.4},
      {"measurement": "concentration of the best emulsifying power", "setting": "[9]; pH=7.4", "result": 160, "unit": "μg/m"},
      {"measurement": "protective effect against hydrogen peroxide", "setting": "mouse embryo fibroblasts [10]; 25, 50 and 75 μM surfactin", "result": "good protective effect"},
      {"measurement": "survival rate of mouse embryo fibroblasts treated with hydrogen peroxide", "setting": "mouse embryo fibroblasts [10]; hydrogen peroxide 100-250 μM, surfactin 24 hours, MTT", "result": "can increase the survival rate"},
      {"measurement": "skin penetration of dexamethasone", "setting": "[11]", "result": "can enhance skin penetration of dexamethasone"}
    ]}
  ]
}
